Measured values from paper PMC10298284, “Synthesis and hLDH Inhibitory Activity of Analogues to Natural Products with 2,8-Dioxabicyclo[3.3.1]nonane Scaffold” (International Journal of Molecular Sciences, 2023).
“And” between values parts separate entries of the source, which are not always exact repeats. Equal values may be shown once. Read-outs that look alike come from different tables or passages of the source.

What was measured:
recombinant human LDHB = target: T1, recombinant human LDHB (Homo sapiens, UniProt P07195); assay: hLDHB enzymatic activity assay (same fluorimetric protocol); format: biochemical; conditions: mean ± SD of n = 3 replicates
T1 construct: purchased Abcam
T1 sequence (P07195 whole entry): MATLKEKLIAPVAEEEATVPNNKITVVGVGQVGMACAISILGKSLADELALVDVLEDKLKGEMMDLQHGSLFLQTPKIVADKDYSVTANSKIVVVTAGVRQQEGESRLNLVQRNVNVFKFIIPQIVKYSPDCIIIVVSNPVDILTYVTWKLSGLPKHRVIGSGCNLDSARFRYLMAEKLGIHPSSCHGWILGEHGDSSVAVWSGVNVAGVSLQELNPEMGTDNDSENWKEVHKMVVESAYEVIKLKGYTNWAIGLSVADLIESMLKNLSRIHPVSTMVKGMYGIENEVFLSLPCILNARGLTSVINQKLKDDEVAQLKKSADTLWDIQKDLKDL
Procedure: (§1) Briefly, the decrease in the coenzyme β-NADH fluorescence (λemission = 460 nm) was measured for 10 min, at different concentration of inhibitors, and its slope was compared with the one obtained when there were not inhibitors added (100% enzymatic activity).
The ability of the synthesized compounds to inhibit the hLDHB enzyme was measured using recombinant human LDHB (95%, specific activity >300 units/mg and concentration of 1.0 mg/mL, Abcam, Cambridge, UK) following the same fluorimetric protocol described in Section 3.4.

recombinant human LDHA = target: T2, recombinant human LDHA (Homo sapiens, UniProt P00338); assay: hLDHA enzymatic activity assay (kinetic spectrofluorimetric, β-NADH fluorescence decrease); format: biochemical; conditions: for IC50: mean ± SD of n = 3 replicates; for Selectivity Rate (IC50 hLDHB/hLDHA): ratio IC50 hLDHB / IC50 hLDHA
T2 construct: purchased Abcam
Procedure: as §1
The enzymatic assay was conducted on 96-well microplates and the decrease in the β-NADH fluorescence (λexcitation = 340 nm; λemission = 460 nm) was detected in a TECAN Infinite 200 Pro M Plex fluorescent plate reader (Tecan Instrument, Inc.) at 28 °C. The activity was determined according to our previously described protocol. The final volume in each well was set to 200 µL using 100 mM potassium phosphate buffer, 0.041 units/mL LDHA, 155 µM β-NADH, 1 mM pyruvate (saturated conditions), and DMSO solutions (5%, v/v) of pure compounds at concentrations in the range of 1–600 µM. The addition of pyruvate allowed the beginning of the reaction and fluorescence was registered every 60 s during 10 min. A lineal time interval was selected to calculate the slope at every single concentration. […] The slope obtained at each concentration was compared to the one obtained for the 100% enzymatic activity control to determine the corresponding enzymatic activity. A nonlinear regression analysis in GraphPad Prism version 9.00 for Windows (GraphPad Software, La Jolla, CA, USA) was used for dose response curve, fitting of logarithm of inhibitor concentration vs. normalized enzymatic activity, to calculate IC50 values (Supplementary Material section). All measurements were made in triplicate and data were expressed as the mean ± SD.

[1] = 1 mM pyruvate, 155 µM β-NADH, pH 7.3, 28 °C, read-out: hLDHA IC50
[2] = supplementary dose response curves, µM only on the axis label, read-out: IC50 (hLDHA inhibition curve)

| SMILES | IC50 (recombinant human LDHB; read-out: hLDHB IC50) | IC50 (recombinant human LDHA; [1]) | Selectivity Rate (IC50 hLDHB/hLDHA) (recombinant human LDHA) | IC50 (recombinant human LDHA; [2]) | IC50 (recombinant human LDHB; supplementary dose response curves, µM only on the axis label, read-out: IC50 (hLDHB inhibition curve)) | Selectivity Rate (IC50 hLDHB/hLDHA) (recombinant human LDHA; listed as 70b) |
| --- | --- | --- | --- | --- | --- | --- |
| COc1ccc(C23CC(c4ccccc4O2)c2c(c4ccccc4oc2=O)O3)cc1OC (racemic) [(±)-48] | > 300 µM | 49.6 ± 1.7 µM | >6.0 | 49.6 ± 1.7 µM | – | – |
| O=c1oc2ccccc2c2c1C1CC(c3ccc(O)cc3)(Oc3ccccc31)O2 (racemic) [(±)-51] | 31.5 ± 3 µM | 34.4 ± 0.8 µM | 0.9 | 34.4 ± 0.8 µM | – | – |
| COc1ccc(C23CC(C4=C(O2)C(=O)c2ccccc2C4=O)c2ccccc2O3)cc1OC (racemic) [(±)-57] | > 300 µM | 42.2 ± 2.4 µM | >7.1 | 42.2 ± 2.4 µM | – | – |
| COc1ccc([C@]23C[C@H](C4=C(C[C@@H](c5ccccc5)OC4=O)O2)c2ccccc2O3)cc1OC (racemic) [(±)-62a, 2-(3′,4′-Dimethoxyphenyl)-chromane-(4→3″, 2→O-4″)-4″-hydroxy-6″-phenyl-5″,6″-dihydro-2H-pyran-2″-one] | – | < 10 µM and 3.6 µM | 41.8 | 3.6 ± 0.3 µM | 150 ± 3.9 µM | – |
| COc1ccc([C@]23C[C@H](C4=C(C[C@H](c5ccccc5)OC4=O)O2)c2ccccc2O3)cc1OC (racemic) [(±)-62b, 2-(3′,4′-Dimethoxyphenyl)-chromane-(4→3″, 2→O-4″)-4″-hydroxy-6″-phenyl-5″,6″-dihydro-2H-pyran-2″-one] | > 300 µM | 39.4 ± 1.2 µM | >7.6 | 39.4 ± 1.2 µM | – | – |
| COc1ccc(C2CC3=C(C(=O)O2)C2CC(c4ccc(OC)c(OC)c4)(O3)Oc3ccccc32)cc1 (racemic) [(±)-64b, 2-(3′,4′-Dimethoxyphenyl)-chromane-(4→3″, 2→O-4″)-4″-hydroxy-6″-(4‴-methoxyphenyl)-5″,6″-dihydro-2H-pyran-2″-one] | > 300 µM | 96.7 ± 9 µM | >3.1 | 96.7 ± 9 µM | – | – |
| COc1ccc(C23CC(C4=C(CC(c5ccccc5)OC4=O)O2)c2cc([N+](=O)[O-])ccc2O3)cc1OC (racemic) [(±)-65b, 2-(3′,4′-Dimethoxyphenyl)-6-nitrochromane-(4→3″, 2→O-4″)-4″-hydroxy-6″-phenyl-5″,6″-dihydro-2H-pyran-2″-one] | > 300 µM | < 10 µM and 8.5 µM | >35.3 | 8.5 ± 0.4 µM | – | – |
| COc1ccc(C23CC(C4=C(CC(c5ccc(Cl)cc5)OC4=O)O2)c2cc([N+](=O)[O-])ccc2O3)cc1OC (racemic) [(±)-66b, 2-(3′,4′-Dimethoxyphenyl)-6-nitrochromane-(4→3″, 2→O-4″)-6″-(4‴-chlorophenyl)-4″-hydroxy-5″,6″-dihydro-2H-pyran-2″-one] | 20.4 ± 0.7 µM | < 10 µM and 6 µM | 3.4 | 6 ± 0.1 µM | – | – |
| COc1ccc(C2CC3=C(C(=O)O2)C2CC(c4ccc(OC)c(OC)c4)(O3)Oc3ccc([N+](=O)[O-])cc32)cc1 (racemic) [(±)-67b, 2-(3′,4′-Dimethoxyphenyl)-6-nitrochromane-(4→3″, 2→O-4″)-4″-hydroxy-6″-(4‴-methoxyphenyl)-5″,6″-dihydro-2H-pyran-2″-one] | 53.7 ± 0.9 µM | 14.6 ± 0.3 µM | 3.7 | 14.6 ± 0.3 µM | – | – |
| COc1ccc(C23CC(C4=C(CC(c5ccc(Cl)cc5)OC4=O)O2)c2cc(Cl)ccc2O3)cc1OC (racemic) [(±)-69b, 2-(3′,4′-Dimethoxyphenyl)-6-chlorochromane-(4→3″, 2→O-4″)-6″-(4‴-chlorophenyl)-4″-hydroxy-5″,6″-dihydro-2H-pyran-2″-one] | 77 ± 9.7 µM | 14.2 ± 0.8 µM | 5.4 | 14.2 ± 0.8 µM | – | – |
| COc1ccc(C2CC3=C(C(=O)O2)C2CC(c4ccc(OC)c(OC)c4)(O3)Oc3ccc(Cl)cc32)cc1 (racemic) [(±)-70b, 2-(3′.4′-Dimethoxyphenyl)-6-chlorochromane-(4→3″, 2→O-4″)-4″-hydroxy-6″-(4‴-methoxyphenyl)-5″,6″-dihydro-2H-pyran-2″-one] | 292 ± 4.1 µM | 20.2 ± 0.7 µM | 14.5 | 20.2 ± 0.7 µM | – | > 10 |
